How the values were obtained:
[1] = in vivo; cited from earlier work
in vitro = conditions: PAMPA, pH 7
Description: The receiver compartment was phosphate buffered saline (pH 7.0) supplemented with 1% sodium dodecyl sulfate. The assay was performed at room temperature; incubation time was 1-24 hours. The concentration in the receiver compartment was determined by UV-VIS spectrophotometry (Thermo Scientific Genesys S10).

human plasma proteins [2] = conditions: cited from earlier work
human plasma proteins [3] = biological target: human plasma proteins (Homo sapiens, UniProt P02768); conditions: serum albumin; cited from earlier work
angiogenesis pathways = conditions: topical 1%; cited from earlier work
[4] = cited from earlier work
CYP3A4 = CYP3A4 (Homo sapiens, UniProt P08684); conditions: cited from earlier work
[5] = cited from earlier work; remark: listed apart in the source
[6] = subconjunctival, 5 subjects; cited from earlier work
P-gp = P-gp (Homo sapiens, UniProt P08183); conditions: cited from earlier work
[7] = in vivo; cited from earlier work; remark: listed apart in the source
[8] = topical, psoriasis; cited from earlier work
[9] = single dose [14C] Sirolimus oral solution, healthy volunteers

CYP3A4, sequence (P08684 whole entry): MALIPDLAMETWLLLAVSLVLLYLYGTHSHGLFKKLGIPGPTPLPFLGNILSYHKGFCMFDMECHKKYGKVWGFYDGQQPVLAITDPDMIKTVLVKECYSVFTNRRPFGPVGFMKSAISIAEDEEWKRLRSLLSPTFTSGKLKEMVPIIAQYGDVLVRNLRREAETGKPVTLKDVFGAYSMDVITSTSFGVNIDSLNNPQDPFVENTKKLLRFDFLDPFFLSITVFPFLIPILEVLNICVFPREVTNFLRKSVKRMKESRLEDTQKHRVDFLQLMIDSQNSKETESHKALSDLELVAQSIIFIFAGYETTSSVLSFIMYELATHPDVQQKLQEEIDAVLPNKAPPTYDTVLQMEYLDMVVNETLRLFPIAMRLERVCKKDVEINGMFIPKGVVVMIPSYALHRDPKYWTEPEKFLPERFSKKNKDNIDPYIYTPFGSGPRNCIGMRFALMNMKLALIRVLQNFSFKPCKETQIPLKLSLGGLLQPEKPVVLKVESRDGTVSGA
human plasma proteins (Homo sapiens, UniProt P02768), sequence (P02768 25-609): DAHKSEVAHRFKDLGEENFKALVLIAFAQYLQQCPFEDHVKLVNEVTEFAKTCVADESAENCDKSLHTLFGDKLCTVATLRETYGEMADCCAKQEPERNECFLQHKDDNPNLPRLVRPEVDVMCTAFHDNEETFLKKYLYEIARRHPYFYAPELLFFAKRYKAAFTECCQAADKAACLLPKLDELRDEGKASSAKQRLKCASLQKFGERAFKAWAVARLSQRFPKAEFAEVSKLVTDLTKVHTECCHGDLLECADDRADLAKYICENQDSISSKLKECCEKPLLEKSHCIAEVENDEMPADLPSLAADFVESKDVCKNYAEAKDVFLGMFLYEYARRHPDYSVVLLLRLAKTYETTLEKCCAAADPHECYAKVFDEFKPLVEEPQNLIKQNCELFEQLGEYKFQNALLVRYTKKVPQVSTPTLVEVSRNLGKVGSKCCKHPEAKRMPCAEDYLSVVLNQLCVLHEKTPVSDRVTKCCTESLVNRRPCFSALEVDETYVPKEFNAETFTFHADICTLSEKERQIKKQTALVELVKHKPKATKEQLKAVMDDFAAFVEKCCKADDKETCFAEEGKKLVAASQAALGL
P-gp, sequence (P08183 whole entry): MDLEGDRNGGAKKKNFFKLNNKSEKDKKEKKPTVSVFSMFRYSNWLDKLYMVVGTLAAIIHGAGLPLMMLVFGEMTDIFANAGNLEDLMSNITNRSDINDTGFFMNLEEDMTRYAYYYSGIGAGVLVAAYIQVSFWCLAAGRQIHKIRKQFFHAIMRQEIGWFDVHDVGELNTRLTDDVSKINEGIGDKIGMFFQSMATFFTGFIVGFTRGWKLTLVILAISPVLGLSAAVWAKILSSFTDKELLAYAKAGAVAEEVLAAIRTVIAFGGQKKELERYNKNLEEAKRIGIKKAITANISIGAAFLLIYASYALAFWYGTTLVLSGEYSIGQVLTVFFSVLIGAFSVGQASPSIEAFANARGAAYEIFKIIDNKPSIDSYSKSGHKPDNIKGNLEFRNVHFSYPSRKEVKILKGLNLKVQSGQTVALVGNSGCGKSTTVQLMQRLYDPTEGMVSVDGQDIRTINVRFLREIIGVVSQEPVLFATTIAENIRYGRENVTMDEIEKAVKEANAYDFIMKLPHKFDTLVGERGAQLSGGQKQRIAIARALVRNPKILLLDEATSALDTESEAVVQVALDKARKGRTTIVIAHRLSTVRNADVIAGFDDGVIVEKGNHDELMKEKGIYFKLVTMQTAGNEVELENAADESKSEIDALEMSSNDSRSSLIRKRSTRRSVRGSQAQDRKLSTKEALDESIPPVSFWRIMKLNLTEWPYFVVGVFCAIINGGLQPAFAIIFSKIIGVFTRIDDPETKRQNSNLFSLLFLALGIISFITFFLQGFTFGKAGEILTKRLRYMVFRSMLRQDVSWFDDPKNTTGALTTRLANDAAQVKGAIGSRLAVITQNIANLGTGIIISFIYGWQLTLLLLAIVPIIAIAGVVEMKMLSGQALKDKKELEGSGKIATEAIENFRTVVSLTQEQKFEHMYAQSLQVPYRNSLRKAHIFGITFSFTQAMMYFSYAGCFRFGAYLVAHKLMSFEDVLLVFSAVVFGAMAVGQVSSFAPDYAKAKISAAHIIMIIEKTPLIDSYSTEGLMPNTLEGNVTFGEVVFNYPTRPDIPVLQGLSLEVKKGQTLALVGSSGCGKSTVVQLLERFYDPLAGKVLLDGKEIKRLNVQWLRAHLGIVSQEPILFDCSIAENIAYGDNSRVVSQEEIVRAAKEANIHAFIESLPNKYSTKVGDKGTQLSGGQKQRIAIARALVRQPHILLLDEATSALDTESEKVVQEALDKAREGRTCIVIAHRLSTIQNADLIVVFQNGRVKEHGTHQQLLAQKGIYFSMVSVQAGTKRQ

In the case of CO[C@H]1C[C@@H]2CC[C@@H](C)[C@@](O)(O2)C(=O)C(=O)N2CCCC[C@H]2C(=O)O[C@H]([C@H](C)C[C@@H]2CC[C@@H](O)[C@H](OC)C2)CC(=O)[C@H](C)/C=C(\C)[C@@H](O)[C@@H](OC)C(=O)[C@H](C)C[C@H](C)/C=C/C=C/C=C/1C [Sirolimus, (3 S,6R,7E,9R,10R, 12R, 14S, 15E, 17E, 19E,21 S,23 S,26R,27R,34aS)9,10,12,13,14,21,22,23,24, 25,26,27,32,33,34, 34a-hexadecahydro-9,27-dihydroxy-3-[(1R)-2[(1 S,3R,4R)-4-hydroxy-3-methoxycyclohexyl]-1-methylethyl]-10,21-dimethoxy6,8,12,14,20,26-hexamethyl-23,27-epoxy-3H-pyrido[2,1-c][1,4]oxaazacyclohentriacontine1,5,11,28,29 (4H,6H,31H)-pentone], the “immune-mediated events in autoimmune disease models” value [1] is given as “suppresses”, the Papp (in vitro) is given as < 1 ×10⁻⁶ cm/s and the “bound to human plasma proteins” value (human plasma proteins [2]) is given as “approximately 92%”. The “bound mainly to serum albumin” value (human plasma proteins [3]) was 97%, the “angiogenesis pathways; regeneration and revascularization of photocoagulated blood vessels” value (angiogenesis pathways) was “can suppress” and the “systemic absorption after topical application” value ([4]; detection >1.0 ng/mL) was “No detectable systemic absorption”. For the same compound, the “effect on facial angiofibromas” value ([4]; topical) was “causes regression”, the “substrate for CYP3A4” value (CYP3A4) was “substrate” and the “increase of mean total exposure (AUC) by high-fat meal compared with fasting” value ([5]; healthy subjects, high-fat meal (861.8 kcal, 54.9% kcal from fat)) was 23 to 35%. For the same compound, the “mean±SD terminal elimination half-life (t1/2)” value ([5]; multiple dosing, stable renal transplant patients) was “about 62±16 hours”, the “contribution to immunosuppressive activity in human whole blood” value ([5]; parent vs metabolites, human whole blood) was “more than 90%” and the “radioactivity excreted in urine” value [5, 9] was 2.2%. The “radioactivity recovered from the feces” value [5, 9] was 91%, the tolerability [6] was “well tolerated” and the “substrate for P-gp” value (P-gp) was “substrate”. The allograft survival [7] was “prolongs”, the clinical score [8] was “significant reduction” and the “plaque thickness and erythema” value [8] was “did not show significant improvement”.

From patent US20170165237A1 (DRUGGABILITY TECHNOLOGIES IP HOLDCO LIMITED, priority 2014, published 2017)
